# Test results published in patent US11225503B2, “Crystobactamides” (HELMHOLTZ-ZENTRUM FÜR INFEKTIONSFORSCHUNG GMBH, priority 2013, dated 2022).
# Like-named read-outs stand apart in the source and are kept apart here.
# Tests used:
# [1] = system: E. coli strain WT-4 M2.1 (parC mutation); assay: Susceptibility of mutant E. coli strains, MIC; assay type: cell-based; conditions: Escherichia coli
# Source text: (§1) Cystobactamides were screened using a panel of E. coli strains with typical mutations in gyrA and parC genes (Table 11).
# (§2) Bacterial wildtype strains used in susceptibility assays were either part of our strain collection or purchased from the German Collection of Microorganisms and Cell Cultures (DSMZ) or from the American Type Culture Collection (ATCC). E. coli strain WT^[6] and E. coli mutants were kindly provided by Prof. Dr. P. Heisig, Pharmaceutical Biology and Microbiology, University of Hamburg.
# (§3) MIC values were determined in microdilution assays. Overnight cultures were diluted in the appropriate growth medium to achieve an inoculum of 10^4-10^6 cfu/mL. Yeasts were grown in Myc medium (1% phytone peptone, 1% glucose, 50 mM HEPES, pH 7.0), S. pneumonia and E. faecalis in tryptic soy broth (TSB: 1.7% peptone casein, 0.3% peptone soymeal, 0.25% glucose, 0.5% NaCl, 0.25% K2HPO4; pH 7.3); M. smegmatis in Middlebrook 7H9 medium supplemented with 10% Middlebrook ADC enrichment and 2 ml/l glycerol). All other listed bacteria were grown in Müller-Hinton broth (0.2% beef infusion solids, 1.75% casein hydrolysate, 0.15% starch, pH 7.4). Cystobactamides and reference drugs were added directly to the cultures in sterile 96-well plates as duplicates and serial dilutions were prepared. Microorganisms were grown on a microplate shaker (750 rpm, 30-37° C., 18-48 h), except S. pneumonia, which was grown at non-shaking conditions (37° C., 5% CO2, 18 h). Growth inhibition was assessed by visual inspection and the MIC was defined as the lowest concentration of compound that inhibited visible growth.
# E. coli WT = assay: Susceptibility of mutant E. coli strains, MIC; assay type: cell-based; conditions: Escherichia coli
# Source text: as §1
# High-level quinolone resistance often results from a combination of several target site mutations and altered efflux mechanisms. […] This, in turn, leads to overproduction of MarA and AcrAB and overexpression of the AcrAB efflux pump is associated with the MAR (multiple antibiotic resistance) phenotype.^[5]
# as §2, §3
# [2] = target: T1, H. sapiens topoisomerase I (Homo sapiens, UniProt P11387); assay: Topoisomerase I relaxation (inhibition) assay; assay type: biochemical
# T1 construct: purchased Inspiralis (Norwich, UK)
# T1 sequence (P11387 1-765): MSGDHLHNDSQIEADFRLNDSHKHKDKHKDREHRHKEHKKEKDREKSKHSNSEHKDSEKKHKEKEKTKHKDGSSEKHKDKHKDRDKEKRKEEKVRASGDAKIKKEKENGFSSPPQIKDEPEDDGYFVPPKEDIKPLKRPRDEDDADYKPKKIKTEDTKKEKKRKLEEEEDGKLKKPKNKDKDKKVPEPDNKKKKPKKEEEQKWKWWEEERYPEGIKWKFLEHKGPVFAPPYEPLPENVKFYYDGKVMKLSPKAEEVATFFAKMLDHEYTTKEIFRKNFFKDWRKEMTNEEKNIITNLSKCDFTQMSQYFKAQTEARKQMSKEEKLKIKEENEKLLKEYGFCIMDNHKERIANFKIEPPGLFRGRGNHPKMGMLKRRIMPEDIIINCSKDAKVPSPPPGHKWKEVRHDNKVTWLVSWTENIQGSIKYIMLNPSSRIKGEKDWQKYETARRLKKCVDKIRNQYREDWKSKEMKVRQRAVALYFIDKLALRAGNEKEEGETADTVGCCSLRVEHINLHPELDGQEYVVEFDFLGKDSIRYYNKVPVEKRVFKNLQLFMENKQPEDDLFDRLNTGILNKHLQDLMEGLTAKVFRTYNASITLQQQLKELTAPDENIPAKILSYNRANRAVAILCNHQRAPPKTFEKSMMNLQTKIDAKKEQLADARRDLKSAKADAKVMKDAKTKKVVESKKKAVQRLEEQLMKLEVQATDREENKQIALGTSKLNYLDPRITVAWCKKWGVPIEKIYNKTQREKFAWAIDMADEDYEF
# Description: Aside the ATP-dependent type IIa topoisomerases like E. coli gyrase, topoIV and human topoII, the activity of cystobactamides on the ATP-independent human topoisomerase I was tested as well.
# The topo I reactions were titrated with varying concentrations of A-D and resolved by agarose gel electrophoresis. For IC50 determination the band intensity of the supercoiled plasmid was determined using Adobe Photoshop, plotted vs. [cystobactamide] and fitted using Hill's equation.
# (§4) Following natural product concentrations were used in the assay:
# Cystobactamide C: 300 μM; 30 μM; 3 μM
# Control reactions were: no enzyme and a standard reaction in presence of 5% (v/v) DMSO. All reaction samples were equilibrated for 10 minutes at room-temperature in the absence of DNA. Then the relaxed plasmid was added to start the reaction
# (§5) To determine IC50 values, the formation of supercoiled (gyrase) or relaxed (topoisomerase I, II IV) plasmid was quantified using Adobe Photoshop (Histogram mode). Plotting of these values versus the compound concentration yielded sigmoidal shaped curves, which were fitted using Hill's equation (Origin Pro 8.5). All determined IC50 values are the averages of three independent experiments.
# [3] = system: several microorganisms and cell lines; assay: Biological evaluation, summary statements over the MIC and cytotoxicity tests; assay type: cell-based
# Description: Cells were seeded at 6×10^3 cells per well of 96-well plates (Corning CellBind®) in complete medium (180 μl) and directly treated with cystobactamides dissolved in methanol in a serial dilution. Compound were tested in duplicate for 5 d, as well as the internal solvent control. After 5 d incubation, 5 mg/ml MTT in PBS (20 μL) was added per well and it was further incubated for 2 h at 37° C.[7] The medium was then discarded and cells were washed with PBS (100 μl) before adding 2-propanol/10N HCl (250:1, v/v; 100 μl) in order to dissolve formazan granules. The absorbance at 570 nm was measured using a microplate reader (EL808, Bio-Tek Instruments Inc.).
# as §3
# E. coli topoisomerase IV = target: T2, E. coli topoisomerase IV (Escherichia coli, UniProt P0AFI2+P20083); assay: Topoisomerase IV relaxation (inhibition) assay; assay type: biochemical
# T2 construct: purchased Inspiralis (Norwich, UK)
# T2 sequence (P20083 whole entry): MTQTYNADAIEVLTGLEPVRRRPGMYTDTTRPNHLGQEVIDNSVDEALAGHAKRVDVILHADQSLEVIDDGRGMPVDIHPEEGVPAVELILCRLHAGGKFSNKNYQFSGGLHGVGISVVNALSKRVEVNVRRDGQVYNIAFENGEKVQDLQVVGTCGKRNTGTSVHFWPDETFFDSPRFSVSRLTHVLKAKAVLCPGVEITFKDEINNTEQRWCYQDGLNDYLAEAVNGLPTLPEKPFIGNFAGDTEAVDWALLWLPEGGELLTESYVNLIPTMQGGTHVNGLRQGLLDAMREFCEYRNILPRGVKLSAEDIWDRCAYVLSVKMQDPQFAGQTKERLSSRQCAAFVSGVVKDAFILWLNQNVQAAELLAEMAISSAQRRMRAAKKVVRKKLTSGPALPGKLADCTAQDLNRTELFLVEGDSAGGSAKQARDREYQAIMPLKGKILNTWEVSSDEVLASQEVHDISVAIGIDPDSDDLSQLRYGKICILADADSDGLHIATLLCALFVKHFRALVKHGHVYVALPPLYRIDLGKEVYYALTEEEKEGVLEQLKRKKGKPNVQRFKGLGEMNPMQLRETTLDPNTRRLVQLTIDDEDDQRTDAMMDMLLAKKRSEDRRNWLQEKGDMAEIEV
# T2 sequence (P0AFI2 whole entry): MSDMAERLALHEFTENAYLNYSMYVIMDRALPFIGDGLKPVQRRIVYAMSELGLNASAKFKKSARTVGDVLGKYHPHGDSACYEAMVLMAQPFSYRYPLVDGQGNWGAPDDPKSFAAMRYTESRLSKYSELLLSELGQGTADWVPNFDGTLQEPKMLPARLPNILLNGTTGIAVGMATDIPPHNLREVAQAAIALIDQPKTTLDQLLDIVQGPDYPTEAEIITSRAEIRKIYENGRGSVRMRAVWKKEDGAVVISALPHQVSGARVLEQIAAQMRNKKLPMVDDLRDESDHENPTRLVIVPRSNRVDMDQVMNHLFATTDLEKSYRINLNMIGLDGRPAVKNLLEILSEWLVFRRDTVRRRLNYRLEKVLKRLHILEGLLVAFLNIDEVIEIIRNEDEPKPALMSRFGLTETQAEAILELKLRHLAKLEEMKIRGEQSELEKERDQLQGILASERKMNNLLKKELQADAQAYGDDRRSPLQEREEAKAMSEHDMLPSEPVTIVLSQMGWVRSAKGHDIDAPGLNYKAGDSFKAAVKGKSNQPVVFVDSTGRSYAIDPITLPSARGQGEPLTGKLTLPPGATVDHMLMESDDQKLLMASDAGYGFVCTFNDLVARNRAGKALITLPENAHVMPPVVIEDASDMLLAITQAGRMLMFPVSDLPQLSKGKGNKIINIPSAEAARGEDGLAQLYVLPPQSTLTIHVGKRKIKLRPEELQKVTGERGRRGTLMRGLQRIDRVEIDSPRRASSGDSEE
# Description: Prokaryotic DNA gyrase and topoisomerase IV share a high degree of homology and gyrase inhibitors typically show a topoisomerase IV inhibitory activity.^8 To test the influence of the cystobactamides on topoisomerase IV a commercial E. coli topoisomerase IV kit (Inspiralis) was used.
# The topo IV reactions were titrated with varying concentrations of A-D and resolved by agarose gel electrophoresis. For IC50 determination the band intensity of the supercoiled plasmid was determined using Adobe Photoshop, plotted vs. [cystobactamide] and fitted using Hill's equation.
# as §4
# Control reactions were: no enzyme and a standard reaction in presence of 5% (v/v) DMSO. All reaction samples were equilibrated for 10 minutes at room-temperature in the absence of DNA. Then the relaxed plasmid was added to start the reaction.
# as §5
Structure (SMILES),MIC [1] [µg/mL],MIC (E. coli WT) [µg/mL],IC50 [2] [µM],inhibition of pathogenic Gram-negative strains A. baumannii and P. aeruginosa (MIC range) ([3]; A. baumannii and P. aeruginosa),"average potency on Gram-positive bacteria compared with ciprofloxacin ([3]; E. faecalis, S. aureus, S. pneumonia, average MIC)","IC50 (E. coli topoisomerase IV; IC50 Topo IV, E. coli topoisomerase IV) [µM]","IC50 (E. coli topoisomerase IV; IC50 in the E. coli Topoisomerase IV inhibition assay, averages of three independent experiments) [µM]",concentration at which E. coli topo IV activity was inhibited (only the highest tested concentration) (E. coli topoisomerase IV) [µM],"IC50 (E. coli topoisomerase IV; E. coli topoisomerase IV, read-out: IC50 Topo IV) [µM]","IC50 (E. coli topoisomerase IV; averages of three independent experiments, read-out: IC50 in the E. coli Topoisomerase IV inhibition assay) [µM]",ratios IC50(topo IV)/IC50(gyrase) (E. coli topoisomerase IV; topo IV vs. gyrase)
"CO[C@H](C(=O)Nc1ccc(C(=O)Nc2ccc(C(=O)Nc3ccc(C(=O)O)cc3OC(C)C)c(O)c2OC(C)C)cc1)[C@H](NC(=O)c1ccc(NC(=O)c2ccc([N+](=O)[O-])cc2)cc1)C(=O)O [cystobactamide A, Cystobactamide A]",0.5,0.5,~1,low μg/ml range,exceeded that of ciprofloxacin,~815,> 160,815,–,–,–
"CC(C)Oc1cc(C(=O)O)ccc1NC(=O)c1ccc(NC(=O)c2ccc(N)cc2)c(OC(C)C)c1O [cystobactamide C, Cystobactamide C]",8.1,8.1,~6,–,–,–,–,300,~300,> 60,~42
